Experimental findings from patent US6127382A, “Amines substituted with a tetrahydroquinolinyl group an aryl or heteroaryl group and an alkyl group, having retinoid-like biological activity” (Allergan Sales, Inc., priority 1999, dated 2000) are described below.

One assay addresses T1, RXRα (Homo sapiens, UniProt P19793).
T1 construct: expressed in transfected cells
T1 sequence (P19793 1-462): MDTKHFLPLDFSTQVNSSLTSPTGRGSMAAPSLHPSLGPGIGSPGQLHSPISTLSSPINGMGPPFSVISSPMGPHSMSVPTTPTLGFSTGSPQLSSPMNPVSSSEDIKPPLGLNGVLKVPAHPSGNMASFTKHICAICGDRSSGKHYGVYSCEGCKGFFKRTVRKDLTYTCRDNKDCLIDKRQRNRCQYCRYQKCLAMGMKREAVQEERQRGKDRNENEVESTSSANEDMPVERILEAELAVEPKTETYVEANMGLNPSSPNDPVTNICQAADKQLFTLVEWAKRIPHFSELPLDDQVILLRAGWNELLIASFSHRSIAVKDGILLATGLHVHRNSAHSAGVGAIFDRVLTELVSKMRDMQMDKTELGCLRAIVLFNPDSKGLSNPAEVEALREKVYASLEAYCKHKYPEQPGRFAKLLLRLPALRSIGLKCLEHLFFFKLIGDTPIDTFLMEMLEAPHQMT
As to the kind of experiment: holoreceptor transactivation assay, RXRα. The class given is cell-based. The note with it: for EC50: holoreceptor assay, read-out: RXR Trans EC50 α; for Emax: relative to 10^-6 M cyclopropyl penta-2,4-dienoic acid reference, read-out: % efficacy, RXRα transactivation. From the text:
(§1) Other assays described below, measure the ability of the compounds of the present invention to bind to, and/or activate various retinoid receptor subtypes. When in these assays a compound binds to a given receptor subtype and activates the transcription of a reporter gene through that subtype, then the compound is considered an agonist of that receptor subtype. […] In the below described assays the ability of the compounds to bind to RARα, RARβ, RARγ, RXRα, RXRβ and RXRγ receptors, and the ability or inability of the compounds to activate transcription of a reporter gene through these receptor subtypes can be tested. […] However, some of the compounds of the invention may behave as retinoid antagonists or partial antagonists and/or as inverse agonists. Because of the complex distribution of the different retinoid receptors in various organs of the mammalian body partial agonists and partial antagonists and compounds which have the characteristics of both may lend themselves to particularly useful therapeutic applications and may avoid serious side effects of conventional retinoid drugs.
(§2) A holoreceptor transactivation assay and a ligand binding assay which measure the antagonist/agonist like activity of the compounds of the invention, or their ability to bind to the several retinoid receptor subtypes, respectively, are described in published PCT Application No. WO WO93/11755 (particularly on pages 30-33 and 37-41) published on Jun. 24, 1993, the specification of which is also incorporated herein by reference. A detailed experimental procedure for holoreceptor transactivations has been described by Heyman et al. Cell 68, 397-406, (1992); Allegretto et al. J. Biol. Chem. 268, 26625-26633, and Mangelsdorf et al. The Retinoids: Biology, Chemistry and Medicine, pp 319-349, Raven Press Ltd., New York, which are expressly incorporated herein by reference. The results obtained in this assay are expressed in EC50 numbers, as they are also in the chimeric receptor transactivation assay. The results of ligand binding assay are expressed in Kd numbers. (See Cheng et al. Biochemical Pharmacology Vol. 22 pp 3099-3108, expressly incorporated herein by reference.)
(§3) Table 1 discloses the activity of certain exemplary compounds of the invention in the above-described chimeric receptor transactivation assay, holoreceptor transactivation assay and a ligand binding assays. Particularly, the transactivation data pertaining to RAR receptors were obtained in the chimeric assay, and the data pertaining to transactivation of RXR receptors were obtained in the holoreceptor transactivation assay.

In the next assay the target is T2, RXRγ (Mus musculus, UniProt P28705).
T2 construct: expressed in transfected cells
T2 sequence (P28705 1-463): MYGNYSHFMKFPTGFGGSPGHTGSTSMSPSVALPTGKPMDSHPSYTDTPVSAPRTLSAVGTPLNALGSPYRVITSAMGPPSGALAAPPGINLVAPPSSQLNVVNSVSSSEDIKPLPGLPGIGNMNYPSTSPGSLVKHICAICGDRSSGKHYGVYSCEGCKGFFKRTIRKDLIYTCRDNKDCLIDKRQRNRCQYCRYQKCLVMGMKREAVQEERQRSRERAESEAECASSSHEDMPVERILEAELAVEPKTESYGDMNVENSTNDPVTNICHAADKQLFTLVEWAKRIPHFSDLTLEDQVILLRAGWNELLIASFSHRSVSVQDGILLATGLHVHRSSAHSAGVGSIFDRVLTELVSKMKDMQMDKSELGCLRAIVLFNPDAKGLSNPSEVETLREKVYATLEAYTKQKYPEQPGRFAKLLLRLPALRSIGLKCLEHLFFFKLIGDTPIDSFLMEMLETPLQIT
As to the kind of experiment: holoreceptor transactivation assay, RXRγ. The class given is cell-based. As to conditions: for EC50: holoreceptor assay, read-out: RXR Trans EC50 γ; for Emax: relative to 10^-6 M cyclopropyl penta-2,4-dienoic acid reference, read-out: % efficacy, RXRγ transactivation.
Description: as §1, §2, §3

The next assay addresses T3, RARα (Homo sapiens, UniProt P10276).
T3 sequence (P10276 1-462): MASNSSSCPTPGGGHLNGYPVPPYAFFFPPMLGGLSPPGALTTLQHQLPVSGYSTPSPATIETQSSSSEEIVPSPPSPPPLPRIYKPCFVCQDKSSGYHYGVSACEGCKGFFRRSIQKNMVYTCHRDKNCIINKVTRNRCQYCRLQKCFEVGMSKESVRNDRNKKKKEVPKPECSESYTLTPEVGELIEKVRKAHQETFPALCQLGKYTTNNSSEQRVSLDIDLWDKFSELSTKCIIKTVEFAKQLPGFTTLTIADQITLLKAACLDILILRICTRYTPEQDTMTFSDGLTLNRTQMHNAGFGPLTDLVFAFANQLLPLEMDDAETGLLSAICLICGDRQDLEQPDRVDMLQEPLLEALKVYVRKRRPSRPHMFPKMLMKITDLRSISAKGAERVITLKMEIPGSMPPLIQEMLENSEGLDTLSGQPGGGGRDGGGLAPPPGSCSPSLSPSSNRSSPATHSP
The assay is described as follows: ligand binding assay, RARα. As to conditions: read-out: RAR Bind Ki α.
Description: as §1, §2, §3

A further assay addresses T4, RXRβ (Homo sapiens, UniProt P28702).
T4 sequence (P28702 1-533): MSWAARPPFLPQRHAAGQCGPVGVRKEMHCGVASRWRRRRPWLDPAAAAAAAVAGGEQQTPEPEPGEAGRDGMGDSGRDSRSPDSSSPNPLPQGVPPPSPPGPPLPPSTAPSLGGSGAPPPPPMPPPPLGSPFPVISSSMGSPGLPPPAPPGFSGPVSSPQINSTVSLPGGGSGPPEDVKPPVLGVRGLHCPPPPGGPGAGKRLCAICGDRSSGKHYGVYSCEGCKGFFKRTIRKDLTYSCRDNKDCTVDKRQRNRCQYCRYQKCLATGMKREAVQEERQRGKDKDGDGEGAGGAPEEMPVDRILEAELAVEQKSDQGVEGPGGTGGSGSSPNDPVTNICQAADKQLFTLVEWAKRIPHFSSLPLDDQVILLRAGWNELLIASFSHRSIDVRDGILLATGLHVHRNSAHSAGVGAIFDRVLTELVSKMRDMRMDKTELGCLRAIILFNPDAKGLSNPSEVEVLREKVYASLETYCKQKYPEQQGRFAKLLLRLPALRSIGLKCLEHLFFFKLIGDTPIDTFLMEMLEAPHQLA
As to the kind of experiment: ligand binding assay, RXRβ. As to conditions: read-out: RXR Bind Ki β.
Description: as §1, §2, §3

For `CC(C)CN(c1ccc(C(=O)O)cc1)c1ccc2c(c1)N(C(C)C)CCC2(C)C` [Compound 39, 4-[(1-Isopropyl-4,4-dimethyl-1 2,3,4-tetrahydroquinolin-7-yl)isobutylamino]benzoic acid], the EC50 on RXRα was 1 nM; at RXRγ it was 2 nM. Further, the Emax is 121% on RXRα and 112% on RXRγ. For the same molecule, the Ki on RARα amounted to 6700 nM; at RXRβ it was 133 nM.

As to `CCN(c1ccc(C(=O)O)cc1)c1ccc2c(c1)C(C)(C)CCN2C(C)C` [Compound 12, 4-[(1-Isopropyl-4,4-dimethyl-1,2,3,4-tetrahydroquinolin-6-yl)ethylamino]benzoic acid], the EC50 is 78 nM on RXRα and 148 nM on RXRγ. Besides, the Emax at RXRα turned out to be 134%; on RXRγ, 150%. The Ki on RARα is 467 nM; on RXRβ, 273 nM.
